Assay results reported in patent publication US20130323165A1, “Magnetic Nanoplatforms for Theranostic and Multi-Modal Imaging Applications” (NORTHEASTERN UNIVERSITY, priority 2010, published 2013).
Counter-ions that a name gives are not always drawn.

Assays:
[1] = Drug loading into MAG-C cationic liposomes by HPLC; type: physicochemical; details: 3 mol % drug
Experimental: The influence of MAG-C on the efficiency of loading chemotherapeutic agents (hydrophilic and lipophilic) in cationic liposomes was evaluated by HPLC. […] The inclusion of PEG in MAG-C cationic liposomes improved incorporation of vinblastine sulfate from […]. We also evaluated the effect of MAG-C on the incorporation efficiency of the hydrophilic drug, dacarbazine at 3 mol %.

B16-F10 melanoma tumor = details: 1.35 mg/kg
[2] = system: B16-F10 melanoma metastasis; assay: Tumor metastases (melanin pigmentation, pleural cavity)
[3] = cationic liposomes without MAG-C

Structure (SMILES) | incorporation (loading) efficiency ([1]; MAG-C cationic liposomes with PEG included) | incorporation (loading) efficiency ([1]; cationic liposomes with 0.5 mg/ml MAG-C (SPION)) | incorporation (loading) efficiency [1, 3] | incorporation (loading) efficiency ([1]; cationic liposomes with 2.5 mg/ml MAG-C (SPION)) | tumor volumes compared to the untreated control group (B16-F10 melanoma tumor) | number of tumor nodules in the livers ([2]; compared to the saline control) | mice with evidence of metastasis within the pleural cavity ([2]; free drug)
COc1cc([C@@H]2c3cc4c(cc3[C@@H](O[C@@H]3O[C@@H]5CO[C@@H](C)O[C@H]5[C@H](O)[C@H]3O)[C@H]3COC(=O)[C@H]23)OCO4)cc(OC)c1O [etoposide] | 7873.73% | did not alter the incorporation efficiency | 7876.03% |  |  |  | 
CC[C@]1(O)C[C@@H]2CN(CCc3c([nH]c4ccccc34)[C@@](C(=O)OC)(c3cc4c(cc3OC)N(C)[C@H]3[C@@](O)(C(=O)OC)[C@H](OC(C)=O)[C@]5(CC)C=CCN6CC[C@]43[C@@H]65)C2)C1 [vinblastine sulfate] |  |  | 3273.6% | no further decrease was observed | no significant difference in the tumor volumes | less | 5/5
